# Experimental data from patent EP3322687B1, “2-BENZYL-INDANONE COMPOUNDS AS ANTICANCER AGENT AND A PROCESS FOR PREPARATION THEREOF” (Council of Scientific and Industrial Research, priority 2015, dated 2017).
# pIC50: −log10 of the molar value.
# Legend:
# tubulin protein = type: biochemical; settings: tubulin 3mg/mL, 37° C, 340 nm, 1h; read-out: Tubulin polymerisation inhibition IC50
# Procedure: The tubulin polymerization experiment was performed using 'assay kit'(Cytoskeleton USA) following manufacturer's protocol based on the procedure described by of Shelanski et al, (1973) and Lee et al. (1977). Briefly, tubulin protein (3mg/mL) in tubulin polymerization buffer (80 mM PIPES, pH 6.9, 2 mM MgCl2, 0.5 mM EGTA, 1 mM GTP and 15% glycerol) was placed in prewarmed 96-well microtiter plates at 37° C in the presence of test compounds with variable concentrations. All samples were mixed well and polymerization was monitored kinetically at 340 nm every min for 1h using a Spectramax plate reader. The IC50 value was determined from dose-dependent analysis and is defined as the concentration that inhibits the rate of polymerization by 50%. Podophyllotoxin was used as standard tubulin polymerisation inhibitor as positive control.
# [1] = In-vivo acute oral toxicity; parameters: species or system Swiss albino mice; settings: for ALP / Albumin / Bilirubin / Body weight / Cholesterol / Creatinine / Haemoglobin / RBC / SGOT / SGPT / Serum Protein / Triglycerides / WBC: 7th day, Mean±SE, n=6
# Procedure: In view of potent anti-cancer activity of compound 2 in in-vitro model, acute and sub-acute oral toxicity of the same was carried out in Swiss albino mice for its further development into drug product. Experiment was conducted in accordance with the Organization for Economic Cooperation and Development (OECD) test guideline No 423 (1987).
# For the acute oral toxicity study, 30 mice (15 male and 15 female) were taken and divided into […] comprising 3 male and 3 female mice in each group weighing between 20-25 g. The animals were maintained at 22±5°C with humidity control and also on an automatic dark and light cycle of 12 hours. The animals were fed with the standard mice feed and provided ad libitum drinking water. Mice of group 1 (Group 1) were kept as control and animals of groups 2, 3, 4 and 5 (Groups II, III, IV & V) were kept as experimental. The animals were acclimatized for 7 days in the experimental environment prior to the actual experimentation. The test compound 2 was solubilized in dimethyl sulphoxide and then suspended in double distilled water (DDW) and was given at 5, 50, 300 and 1000mg/kg body weight to animals of groups 2, 3, 4 and 5 (Groups II, III, IV & V) respectively once orally. Control animals received only vehicle.
# The animals were checked for mortality and any signs of ill health at hourly interval on the day of administration of drug and there after a daily general case side clinical examination was carried out including changes in skin, mucous membrane, eyes, occurrence of secretion and excretion and also responses like lachrymation, piloerection respiratory patterns etc. Also changes in gait, posture and response to handling were also recorded. In addition to observational study, body weights were recorded and blood and serum samples were collected from all the animals on 7th day of the experiment in acute oral toxicity. The samples were analysed for total RBC, WBC, differential leucocytes count, haemoglobin percentage and biochemical parameters like ALP, SGPT, SGOT, total cholesterol, triglycerides, creatinine, bilirubin, serum protein, tissue protein, malonaldehyde and reduced GSH activity. The animals were then sacrificed and were necropsed for any gross pathological changes. Weights of vital organs like liver, heart, kidney etc. were recorded. Table 7. Effect of compound 2 as a single acute oral dose at 5, 50, 300 and 1000 mg/kg on body weight, haematological and serum biochemical parameters in Swiss albino mice (Mean±SE; n=6; a, P<0.001 compared to control, 5, 50, 300, 1000 mg/kg)
smiles,measurement,setting,value
"COc1cc(C2c3c(cc(OC)c(OC)c3OC)C(=O)C2Cc2ccc3c(c2)OCO3)cc(OC)c1OC (centres unmarked) [Compound 2, 2-(3"",4""-methylenedioxybenzyl)-3-(3',4',5'-trimethoxyphenyl)-4,5,6-trimethoxy-indan-1-one]",pIC50,tubulin protein,5.68
same,ALP change as compare to control groups,"[1]; 1000 mg/kg body weight, single oral dose",significant changes
same,differential leucocytes counts,"[1]; single acute oral dose at 5, 50, 300 and 1000 mg/kg body weight, n=6, compared to control (Figure 2)",Non significant changes
same,absolute and relative organ weight,"[1]; single acute oral dose at 5, 50, 300 and 1000 mg/kg, n=6, compared to control (Figure 1)",Non significant changes
same,"observational changes, morbidity and mortality","[1]; single acute oral dose, up to the dose level of 1000 mg/kg body weight","No observational changes, morbidity and mortality"
same,ALP,[1]; single oral dose 5 mg/kg,167.3±16.5 U/L
same,Albumin,[1]; single oral dose 5 mg/kg,3.63 ± 0.28 g/dL
same,Bilirubin,[1]; single oral dose 5 mg/kg,0.14 ± 0.07 mg/dL
same,Body weight,[1]; single oral dose 5 mg/kg,23.97±0.64 gm
same,Cholesterol,[1]; single oral dose 5 mg/kg,104.0 ± 6.7 mg/dL
same,Creatinine,[1]; single oral dose 5 mg/kg,0.56 ± 0.10 mg/dL
same,Haemoglobin,[1]; single oral dose 5 mg/kg,13.55±0.60 gm/dL
same,RBC,[1]; single oral dose 5 mg/kg,5.93±0.39 million/mm3
same,SGOT,[1]; single oral dose 5 mg/kg,12.24±1.18 U/L
same,SGPT,[1]; single oral dose 5 mg/kg,15.74±1.03 U/L
same,Serum Protein,[1]; single oral dose 5 mg/kg,1.07 ± 0.06 mg/mL
same,Triglycerides,[1]; single oral dose 5 mg/kg,98.74 ± 3.11 mg/dL
same,WBC,[1]; single oral dose 5 mg/kg,7.95±0.64 1000*/mm3
same,ALP,[1]; single oral dose 50 mg/kg,191.6±27.6 U/L
same,Bilirubin,[1]; single oral dose 50 mg/kg,0.09 ± 0.01 mg/dL
same,Body weight,[1]; single oral dose 50 mg/kg,24.29±0.95 gm
same,Cholesterol,[1]; single oral dose 50 mg/kg,120.3 ± 10.4 mg/dL
same,Creatinine,[1]; single oral dose 50 mg/kg,0.69 ± 0.08 mg/dL
same,Haemoglobin,[1]; single oral dose 50 mg/kg,13.06±0.82 gm/dL
same,RBC,[1]; single oral dose 50 mg/kg,5.83±0.17 million/mm3
same,SGOT,[1]; single oral dose 50 mg/kg,25.76±5.40 U/L
same,SGPT,[1]; single oral dose 50 mg/kg,17.92±1.69 U/L
same,Serum Protein,[1]; single oral dose 50 mg/kg,1.13 ± 0.07 mg/mL
same,Triglycerides,[1]; single oral dose 50 mg/kg,74.95 ± 5.79 mg/dL
same,WBC,[1]; single oral dose 50 mg/kg,7.99±0.55 1000*/mm3
same,ALP,[1]; single oral dose 300 mg/kg,224.0±6.70 U/L
same,Albumin,[1]; single oral dose 300 mg/kg,3.63 ± 0.28 g/dL
same,Body weight,[1]; single oral dose 300 mg/kg,23.83±0.42 gm
same,Cholesterol,[1]; single oral dose 300 mg/kg,116.5 ± 15.6 mg/dL
same,Creatinine,[1]; single oral dose 300 mg/kg,0.76 ± 0.03 mg/dL
same,Haemoglobin,[1]; single oral dose 300 mg/kg,10.90±1.11 gm/dL
same,RBC,[1]; single oral dose 300 mg/kg,6.03±0.11 million/mm3
same,SGOT,[1]; single oral dose 300 mg/kg,18.71±3.16 U/L
same,SGPT,[1]; single oral dose 300 mg/kg,18.20±1.41 U/L
same,Serum Protein,[1]; single oral dose 300 mg/kg,1.09 ± 0.06 mg/mL
same,Triglycerides,[1]; single oral dose 300 mg/kg,104.94 ± 10.39 mg/dL
same,WBC,[1]; single oral dose 300 mg/kg,8.13±0.64 1000*/mm3
same,ALP,[1]; single oral dose 1000 mg/kg,234.3±44.5 U/L
same,Albumin,[1]; single oral dose 1000 mg/kg,3.26 ± 0.30 g/dL
same,Bilirubin,[1]; single oral dose 1000 mg/kg,0.12 ± 0.04 mg/dL
same,Body weight,[1]; single oral dose 1000 mg/kg,23.41±0.16 gm
same,Creatinine,[1]; single oral dose 1000 mg/kg,0.76 ± 0.09 mg/dL
same,Haemoglobin,[1]; single oral dose 1000 mg/kg,12.29±0.53 gm/dL
same,RBC,[1]; single oral dose 1000 mg/kg,6.10±0.27 million/mm3
same,SGOT,[1]; single oral dose 1000 mg/kg,35.49±6.57 U/L
same,SGPT,[1]; single oral dose 1000 mg/kg,11.97±1.67 U/L
same,Serum Protein,[1]; single oral dose 1000 mg/kg,1.42 ± 0.16 mg/mL
same,Triglycerides,[1]; single oral dose 1000 mg/kg,87.28 ± 4.39 mg/dL
same,WBC,[1]; single oral dose 1000 mg/kg,8.57±0.76 1000*/mm3
same,toxicity in in-vivo acute oral toxicity,[1]; up to 300mg/kg,no toxicity
same,tolerability,[1]; up to the dose level of 1000 mg/kg body weight as a single acute oral dose,well tolerated
